Series [1] relates to HQF DNA (human quadruplex forming DNA), d(TTAGGG)4 (DNA, G4) TTAGGGTTAGGGTTAGGGTTAGGG
The experiment in a line: SYBR Green fluorescence melting. The note with it: 1 µM ligand, 5 µM DNA, melting buffer not stated.

The next series deals with B16F10 melanoma cells. The experiment in a line: Preclinical study: survival of tumor-induced mice. It counts as in vivo, C57BL6/J mice. The conditions noted are these: 200 µM L1, 125 µM L2, 50 µM L3 on alternate days for 2 weeks. Here is the method:
C57BL6/J mice were used from the animal house facility located at CCMB (Hyderabad, India). All animal experimental studies were carried out in strict accordance with the recommendations in the guide for the care and use of laboratory animals of Centre for Cellular and Molecular Biology (CCMB). All the animal experimental protocols were approved by the Institutional Animal Ethical Committee (IAEC) of Centre for Cellular and Molecular Biology (CCMB with Permit number: CPCSEA 20/1999, Ministry of Environment and Forest, Government of India).The protocol was approved by the Institutional Animal Ethical Committee (IAEC) of CCMB (Protocol number: IAEC 16/2012). All the surgery was performed under sodium pentobarbital anaesthesia, and all efforts were made to minimize suffering. C57BL6/J mice, 6–8 weeks old, were subcutaneously injected with 2×10^5 B16F10 melanoma cells, in the […] region. After the tumor attained a size of 500–1000 mm^3 (≈9 days following cancer cell implantation), mice were grouped and treated as follows.
Group (i) was treated with vehicle control (4 mice), group (ii) with 200 µM of L1 (4 mice), group (iii) with 125 µM of L2 (4 mice) and group (iv) with 50 µM of L3 (4 mice). These experiments were repeated thrice and mean values were considered. Size of tumor was measured every day at a fixed time. The tumor sizes were calculated using the formula (0.5 ab^2), where ‘a’ was the largest dimension and ‘b’ was the smallest dimension of the tumor. The experiment was terminated when the average tumor volume of the control/treated group was 10000–12000 mm^3.

Series [2] deals with telomerase reverse transcriptase (TERT). The series can be described thus: Western blot of telomerase expression in tumor tissues. Type of series: in vivo, C57BL6/J mice. The conditions noted are these: tumor tissue of tumor-induced mice, 216 h of treatment. Here is the method: Western blot analysis was carried out to study the expression of telomerase in ligand treated as well as untreated tissues of tumor-induced mice. Total proteins were extracted from the tumor tissues into solubilisation buffer (7 M urea, 2 M thiourea, 4% CHAPS, 18 mM Tris–HCl, 14 mM Trizma base, 2 tablets EDTA protease inhibitor, 0.2% Triton-X, 50 mM DTT) following homogenization and sonication. Extracted proteins were quantified against BSA standard using an Amido black assay method. 40 µg of total protein obtained from different time points (48 h, 72 h and 216 h) were electrophoresed on a 10% SDS-PAGE and transferred onto a PVDF membrane using wet-transfer method. Immunoblot analysis of the telomerase reverse transcriptase (TERT) expression was performed using anti-TERT antibody (Pierce, Thermo Scientific) as primary antibody and anti-rabbit HP conjugated secondary antibodies (Pierce, Thermo Scientific). The immuno- blots were scanned using the ECL detection method to estimate the telomerase expression levels in the tissues of tumor-induced mice. The endogenous β-actin expression level was considered as control.

In the next series the test system is QF DNA. The experiment in a line: Stop assay (inhibition of in vitro DNA synthesis) with QF DNA. It counts as biochemical. The note with it: for ligand concentration range of complete / maximum inhibition of DNA synthesis: 5 µM QF DNA; for percentage of DNA synthesis inhibition with QF DNA: at the respective half maximal inhibitory concentration; for Ki: competitive inhibition against dNTPs, Taq polymerase, read-out: inhibition constant (Ki), Cheng-Prusoff equation. As to the method:
The G-quadruplex structure forming region of QF oligonucleotide is shown in bold letters.
To the PCR reaction mixture (25 µl) containing 10 mM Tris-HCl, pH 8.3, with 50 mM KCl, 1.5 mM Mg(OAc)2, 5 µM of each oligonucleotide, 1 mM dNTPs, 5 units of Taq polymerase, L1, L2, L3 were added at various concentrations (50 µM, 100 µM, 150 µM, 200 µM), and PCR reactions were performed. PCR mixture without any ligand was considered as control. The primers were 5′ end-labelled with [γ-^32P] ATP using 1 µl of polynucleotide kinase and 5 µl of 10× kinase buffer and the contents were incubated at 37°C for 5 min. Stop assay was performed using an ABI thermal cycler. Initial denaturation was done at 94°C for 3 min, followed by 20 repeated cycles each having 94°C for 30 sec, 58°C for 30 sec, and 72°C for 30 sec. After PCR, 5 µl of the amplified product was loaded on a 12% non-denaturing polyacrylamide gel with 1×TBE. The in vitro DNA synthetic band intensity was measured using Bio Rad Gel Doc XR+system (USA). The band intensity of the PCR product obtained with no ligand was taken as control for all the quadruplex forming DNA samples (QF DNA). Percentage of DNA synthesis inhibition was calculated using equation 1, whereas, inhibition constant, Ki (using Cheng-Prusoff equation) for each ligand was calculated by using equation 2. [drawing 2] (1)

The test system of a further series is B16F10 cells. The experiment in a line: Flow cytometry Annexin V / PI dot plot. Type of series: cell-based, human. The conditions noted are these: 200 µM L1, 125 µM L2, 50 µM L3, 3 h. Here is the method:
Since MTT and cell culture assays yielded encouraging results with B16F10 cells they were used for confocal and flow cytometry experiments. After 90% confluence, the cells were treated with 200 µM, 125 µM and 50 µM of L1, L2, L3 respectively, for 3 h. 1×10^6 cells were washed with 2× binding buffer and resuspended in 100 µl binding buffer and Annexin-V-FITC (1.0 µg). The cells were then incubated at room temperature for 10 min, followed by the addition of 400 µl of binding buffer containing 1 µl of Propidium Iodide (PI). Stained cells were analyzed using FACS Calibur Flow Cytometer from B.D. Biosceinces (USA). Annexin-V-FITC and PI labelled cells were excited using 488 nm solid-state laser and fluorescence emission intensity was captured using 530/30 and 585/42 band pass filters respectively.

Another series concerns MCF-7. The series can be described thus: Cell count assay (trypan blue). It counts as cell-based, human. The note with it: for Number of viable cells after 24 h of ligand treatment: MCF-7, 24 h; for Number of viable cells after 48 h of ligand treatment: MCF-7, 48 h. Here is the method: (§1) Normal and tumor cell lines were seeded at 20000–40000 cells/cm^2 with 0.2 mL/cm^2 media and incubated for 48 h at 37°C, 6% CO2, 95% relative humidity. […] After 24 h and 48 h of incubation, cells were washed with 300 µl PBS or 0.02% EDTA, trypsinized, followed by harvesting at 37°C. 200 µl cell suspension was transferred into 1.5 ml microcentrifuge tube. To the cell suspension, 300 µl PBS followed by 500 µl of 0.4% trypan blue solution was added. To get the homogenised solution, the microcentrifuge tube was gently tapped for 5 min, 20 µl of cell suspension was loaded in to a chamber of the haemocytometer.

A further series deals with A549. The experiment in a line: Cell count assay (trypan blue). It counts as cell-based, human. The note with it: for Number of viable cells after 24 h of ligand treatment: A549, 24 h; for Number of viable cells after 48 h of ligand treatment: A549, 48 h. Here is the method: as §1
For another series, the system named is B16F10. The experiment in a line: Cell count assay (trypan blue). Type of series: cell-based, human. The note with it: for Number of viable cells after 24 h of ligand treatment: B16F10, 24 h; for Number of viable cells after 48 h of ligand treatment: B16F10, 48 h. As to the method:
as §1

Experimental findings from PMC3747139 (PLoS ONE, 2013) are described below.

In the case of `Cc1cn([C@H]2C[C@H](N=[N+]=[N-])[C@@H](CO)O2)c(=O)[nH]c1=O` [Ligand L1, 1-(4-azido 5-(hydroxylmethyl)tetrahydrofuran-2-yl)-5-methyl pyrimidi-ne-2,4(1H,3H)-dione, reference compound], the ΔTm in series [1] (derived from two Tm (28 and 27 °C)) is 1 °C. For the same compound, in the series with B16F10 melanoma cells, the “Number of days survived” value is reported as 25 (±5) days and the “survival period of treated mice” value is given as approximately 4 weeks. In series [2], the “percentage of reduction of telomerase expression” value is reported as 80%. In the series with QF DNA, the “ligand concentration range of complete / maximum inhibition of DNA synthesis” value was in the range of 150 to 200 µM, the “percentage of DNA synthesis inhibition with QF DNA” value was found to be 84% and the inhibitory constant (Ki) came to 2.94 µM. In addition, in the series with B16F10 cells, the “Cells Alive” value was determined as 68.78%, the Early apoptotic worked out at 02.61%, the Late apoptotic amounted to 12.05% and the Necrotic was 16.56%. Also, in the series with B16F10 cells, the Total apoptotic cells is recorded as 14.66%. In addition, in the series with MCF-7, the “Number of viable cells after 24 h of ligand treatment” value was “+ (Viable cells in the range of 80%–90%)” and the “Number of viable cells after 48 h of ligand treatment” value is reported as “++ (Viable cells in the range of 50%–60%)”. In addition, in the series with A549, the “Number of viable cells after 24 h of ligand treatment” value is listed as “+ (Viable cells in the range of 80%–90%)” and the “Number of viable cells after 48 h of ligand treatment” value is listed as “++ (Viable cells in the range of 50%–60%)”. Also, in the series with B16F10, the “Number of viable cells after 24 h of ligand treatment” value is reported as “++ (Viable cells in the range of 50%–60%)” and the “Number of viable cells after 48 h of ligand treatment” value was “+++ (Viable cells which are equal or less than 30%)”.

As for `Cc1cn([C@H]2C[C@H](n3cc(-c4ccccc4)nn3)[C@@H](CO)O2)c(=O)[nH]c1=O` [Ligand L2], the ΔTm in series [1] (derived from two Tm (42 and 27 °C)) came out at 15 °C. Moreover, in the series on B16F10 melanoma cells, the “Number of days survived” value is recorded as 31 (±4) days and the “survival period of treated mice” value is listed as approximately 5 weeks. The “percentage of reduction of telomerase expression” value in series [2] turned out to be 88%. In the series with QF DNA, the “ligand concentration range of complete / maximum inhibition of DNA synthesis” value lay within 150 to 200 µM, the “percentage of DNA synthesis inhibition with QF DNA” value is on record as 91% and the Ki was 1.84 µM. In addition, in the series with B16F10 cells, the “Cells Alive” value amounted to 22.88%, the Early apoptotic is recorded as 04.82%, the Late apoptotic turned out to be 19.07% and the Necrotic amounted to 53.23%. This compound came in with a Total apoptotic cells in the series with B16F10 cells of 23.89%. For the same compound, in the series on MCF-7, the “Number of viable cells after 24 h of ligand treatment” value was “+ (Viable cells in the range of 80%–90%)” and the “Number of viable cells after 48 h of ligand treatment” value was “++ (Viable cells in the range of 50%–60%)”. In addition, in the series on A549, the “Number of viable cells after 24 h of ligand treatment” value is listed as “++/++ (Viable cells in the range of 50%–60%)” and the “Number of viable cells after 48 h of ligand treatment” value is given as “++/++ (Viable cells in the range of 50%–60%)”. For the same compound, in the series with B16F10, the “Number of viable cells after 24 h of ligand treatment” value is on record as “++ (Viable cells in the range of 50%–60%)” and the “Number of viable cells after 48 h of ligand treatment” value was “+++ (Viable cells which are equal or less than 30%)”.

Take `Cc1cn([C@H]2C[C@H](n3cc(-c4ccc(Cl)cc4)nn3)[C@@H](CO)O2)c(=O)[nH]c1=O` [Ligand L3, 1-(4-(4-(4-chlorophenly)-1H-1,2,3-triazole-1-yl)-5-(hydroxymethyl)tetrahydrofuran-2-yl)-5-methylpyrimidine-2,3(1H,3H)-dione]: in series [1] (derived from two Tm (52 and 27 °C)), the shift in melting temperature (ΔTm) came out at 25 °C. Moreover, in the series on B16F10 melanoma cells, the “Number of days survived” value is recorded as 40 (±6) days and the “survival period of treated mice” value is “about 6 weeks”. The “percentage of reduction of telomerase expression” value in series [2] worked out at 95%. For the same compound, in the series on QF DNA, the “ligand concentration range of complete / maximum inhibition of DNA synthesis” value was in the range of 50 to 100 µM, the “percentage of DNA synthesis inhibition with QF DNA” value is given as 94% and the inhibition constant Ki was 0.735 µM. In the series with B16F10 cells, the “Cells Alive” value worked out at 17.79%, the Early apoptotic was 20.99%, the Late apoptotic worked out at 60.26% and the Necrotic is reported as 00.96%. In the series on B16F10 cells, the Total apoptotic cells came to 81.25%. In the series on MCF-7, the “Number of viable cells after 24 h of ligand treatment” value was “++/++ (Viable cells in the range of 50%–60%)” and the “Number of viable cells after 48 h of ligand treatment” value was “++/++ (Viable cells in the range of 50%–60%)”. Further, in the series with A549, the “Number of viable cells after 24 h of ligand treatment” value is listed as “++ (Viable cells in the range of 50%–60%)” and the “Number of viable cells after 48 h of ligand treatment” value was “+++ (Viable cells which are equal or less than 30%)”. In the series with B16F10, the “Number of viable cells after 24 h of ligand treatment” value was “++ (Viable cells in the range of 50%–60%)” and the “Number of viable cells after 48 h of ligand treatment” value was “+++ (Viable cells which are equal or less than 30%)”.
